Source: patent US9963434B2, “N-arylmethyl sulfonamide negative modulators of NR2A” (LUC THERAPEUTICS, priority 2013, dated 2018)
Where two headings read alike, the source gives them in different places.

Target: NR1/NR2A (Homo sapiens (Human), UniProt Q05586+Q12879)
Experiment: FDSS Ca2+ influx inhibition assay in HEK293 cells expressing NR1/NR2A
Assay type: cell-based
Details: 3 μM glutamate, 3 μM glycine, 1 mM Ca2+
Description: Cell Culture and plating: HEK293 cells expressing NR1/NR2A (Chantest, Cleveland, Ohio) were grown to 70-80% confluency as an adherent monolayer in standard tissue culture flasks at 37° C., 5% CO2 per supplier's instructions.
After induction, cell culture medium was removed and cells were rinsed once with Ca^2+ and Mg^2+-free Dulbecco's phosphate buffered saline. Cells were then removed from the flask using TrypLE™ Express (Life Technologies) according to the manufacturer's instructions and collected to 50 ml centrifuge tubes. Following two washes in Ca^2+/Mg^2+-free HBSS with 20 mM HEPES (HHnoCa), cells were counted and viability assessed using trypan blue. To load cells with Ca^2+-sensitive dye, they were resuspended in fluo-8 plus Component B (AAT Bioquest Products) diluted in HHnoCa and incubated 15 minutes at 37° C., followed by 30 minutes at room temp (in dark). Cells were then washed and resuspended in HHnoCa to remove extracellular dye and plated in 384-well plates (Falcon, uncoated) at 20,000-30,000 cells/well in a final volume of 25 μL/well.
FDSS Assay: To each well of the plate, 10 μL test compound, control (MK801) or HHnoCa buffer was added to a final concentration of 10 μM with a final concentration of DMSO of 0.1%. Following 10 minutes pre-incubation in the dark, plates are loaded onto the Hamamatsu FDSS 6000. After collecting baseline fluorescence images, 3 μM glutamate, 3 μM glycine, and 1 mM Ca^2+ in HHnoCa buffer is added to each well, and Ca^2+ is recorded for 3 minutes. Data were processed by computing ratio of fluorescence at the end of data collection to baseline fluorescence to assess degree of Ca^2+ influx inhibition relative to that observed in MK801.

[1] = inhibition relative to MK801, read-out: NR2A IC50

Sequence of NR1/NR2A (Q12879 23-1464, other chains not shown): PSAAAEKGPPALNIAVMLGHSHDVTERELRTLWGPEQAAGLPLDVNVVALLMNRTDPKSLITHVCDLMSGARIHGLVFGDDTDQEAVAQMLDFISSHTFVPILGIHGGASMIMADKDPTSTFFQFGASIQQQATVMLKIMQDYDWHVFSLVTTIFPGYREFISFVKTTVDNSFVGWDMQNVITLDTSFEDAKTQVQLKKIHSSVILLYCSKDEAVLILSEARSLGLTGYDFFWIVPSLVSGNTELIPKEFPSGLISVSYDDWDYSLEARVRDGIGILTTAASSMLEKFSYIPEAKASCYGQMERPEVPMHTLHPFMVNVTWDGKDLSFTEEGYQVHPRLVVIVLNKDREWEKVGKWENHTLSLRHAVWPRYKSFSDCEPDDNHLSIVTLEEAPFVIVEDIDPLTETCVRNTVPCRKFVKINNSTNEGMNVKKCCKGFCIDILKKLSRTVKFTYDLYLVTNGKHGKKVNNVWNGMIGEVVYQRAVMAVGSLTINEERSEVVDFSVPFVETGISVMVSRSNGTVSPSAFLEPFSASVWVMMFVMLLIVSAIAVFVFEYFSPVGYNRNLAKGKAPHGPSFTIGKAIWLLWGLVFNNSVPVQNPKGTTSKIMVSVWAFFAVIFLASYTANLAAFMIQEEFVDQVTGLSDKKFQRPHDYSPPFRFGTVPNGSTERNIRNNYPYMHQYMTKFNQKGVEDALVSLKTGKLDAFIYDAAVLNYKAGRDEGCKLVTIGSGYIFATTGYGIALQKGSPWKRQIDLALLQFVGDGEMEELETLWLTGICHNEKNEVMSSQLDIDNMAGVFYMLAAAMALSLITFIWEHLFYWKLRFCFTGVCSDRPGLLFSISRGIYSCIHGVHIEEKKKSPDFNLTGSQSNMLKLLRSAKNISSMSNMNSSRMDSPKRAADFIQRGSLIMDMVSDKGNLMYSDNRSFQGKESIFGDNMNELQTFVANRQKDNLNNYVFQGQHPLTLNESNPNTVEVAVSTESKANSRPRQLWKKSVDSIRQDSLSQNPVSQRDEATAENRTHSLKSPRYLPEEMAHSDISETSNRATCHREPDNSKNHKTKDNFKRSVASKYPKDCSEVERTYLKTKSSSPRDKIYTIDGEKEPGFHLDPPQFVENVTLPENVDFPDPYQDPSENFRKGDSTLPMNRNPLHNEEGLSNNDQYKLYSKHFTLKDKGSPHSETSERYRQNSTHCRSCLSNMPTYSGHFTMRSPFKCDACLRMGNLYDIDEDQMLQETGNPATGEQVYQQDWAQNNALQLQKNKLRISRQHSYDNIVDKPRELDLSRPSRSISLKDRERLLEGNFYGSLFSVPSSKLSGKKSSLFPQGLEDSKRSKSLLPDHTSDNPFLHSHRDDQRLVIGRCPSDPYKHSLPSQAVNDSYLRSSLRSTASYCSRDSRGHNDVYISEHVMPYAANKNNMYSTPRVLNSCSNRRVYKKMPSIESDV

| SMILES | IC50 [1] [µM] | IC50 (read-out: Binned Activity) [µM] |
| --- | --- | --- |
| Cc1csc(CNC(=O)c2ccc(CNS(=O)(=O)c3ccc(F)c(Cl)c3)cn2)n1 [5-(3-chloro-4-fluorobenzenesulfon-amidomethyl)-N-[(4-methyl-1,3-thiazol-2-yl)methyl]pyridine-2-carboxamide] | 10 | > 10 |
| Cc1ncc(CNC(=O)c2cnc(CNS(=O)(=O)c3cc4ccccc4s3)cn2)s1 [5-(1-benzothiophene-2-sulfonamidomethyl)-N-[(2-methyl-1,3-thiazol-5-yl)methyl]pyrazine-2-carboxamide] | 10 | > 10 |
| Cc1nnc(CNC(=O)c2ccc(CNS(=O)(=O)c3ccc(F)c(Cl)c3)nc2)o1 [6-(3-chloro-4-fluorobenzenesulfon-amidomethyl)-N-[(5-methyl-1,3,4-oxadiazol-2-yl)methyl]pyridine-3-carboxamide] | 10 | > 10 |
| Cc1ncc(CNC(=O)c2ccc(CNS(=O)(=O)c3ccn(C)n3)cn2)s1 [N-[(2-methyl-1,3-thiazol-5-yl)methyl]-5-(1-methyl-1H-pyrazole-3-sulfonamidomethyl) pyridine-2-carboxamide] | 10 | > 10 |
| Cc1ncc(CNC(=O)c2cnc(CNS(=O)(=O)c3ccsc3)cn2)s1 [N-[(2-methyl-1,3-thiazol-5-yl)methyl]-5-(thiophene-3-sulfonamidomethyl) pyrazine-2-carboxamide] | 10 | > 10 |
| O=C(NCc1cccs1)c1ccc(CNS(=O)(=O)c2ccc(F)c(Cl)c2)cn1 [5-(3-chloro-4-fluorobenzenesulfon-amidomethyl)-N-(thiophen-2-ylmethyl)pyridine-2-carboxamide] | 10 | > 10 |
| Cc1ncc(CNC(=O)c2cnc(CNC(=O)c3cccc(Cl)c3)cn2)s1 [5-{[(3-chlorophenyl)formamido]methyl}-N-[(2-methyl-1,3-thiazol-5-yl)methyl]pyrazine-2-carboxamide] | 10 | > 10 |
| Cc1ncc(CNC(=O)c2cnc(CNC(=O)c3cccc(C#N)c3)cn2)s1 [5-{[(3-cyanophenyl)formamido]methyl}-N-[(2-methyl-1,3-thiazol-5-yl)methyl]pyrazine-2-carboxamide] | 10 | > 10 |
| Cc1cccc(CNC(=O)c2ccc(CNS(=O)(=O)c3ccc(F)c(Cl)c3)nc2)n1 [6-(3-chloro-4-fluorobenzenesulfon-amidomethyl)-N-[(6-methylpyridin-2-yl)methyl]pyridine-3-carboxamide] | 10 | > 10 |
| COc1ccc(CCNC(=O)c2ccc(CNS(=O)(=O)c3ccc(F)c(Cl)c3)nn2)cc1 [6-(3-chloro-4-fluorobenzenesulfon-amidomethyl)-N-[2-(4-methoxyphenyl)ethyl] pyridazine-3-carboxamide] | 10 | > 10 |
| Cc1ncsc1CNC(=O)c1ccc(CNS(=O)(=O)c2ccc(F)c(Cl)c2)nc1 [6-(3-chloro-4-fluorobenzenesulfon-amidomethyl)-N-[(4-methyl-1,3-thiazol-5-yl)methyl]pyridine-3-carboxamide] | 10 | > 10 |
| O=C(NCc1ncc(C(F)(F)F)cc1Cl)c1cnc(CNS(=O)(=O)c2ccc(F)c(Cl)c2)cn1 [5-(3-chloro-4-fluorobenzenesulfon-amidomethyl)-N-{[3-chloro-5-(trifluoromethyl)pyridin-2-yl]methyl}pyrazine-2-carboxamide] | 10 | > 10 |
| O=C(NC1CCS(=O)(=O)C1)c1ccc(CNS(=O)(=O)c2ccc(F)c(Cl)c2)cn1 (centres unmarked) [5-(3-chloro-4-fluorobenzenesulfon-amidomethyl)-N-(1,1-dioxo-1λ^6-thiolan-3-yl)pyridine-2-carboxamide] | 10 | > 10 |
| O=C(NCc1cccnc1)c1ccc(CNS(=O)(=O)c2ccc(F)c(Cl)c2)nc1 [6-(3-chloro-4-fluorobenzenesulfon-amidomethyl)-N-(pyridin-3-ylmethyl)pyridine-3-carboxamide] | – | > 10 |
| COc1ccc(CNC(=O)c2cnc(CNS(=O)(=O)c3ccc(F)c(Cl)c3)cn2)cn1 [5-(3-chloro-4-fluorobenzenesulfon-amidomethyl)-N-[(6-methoxypyridin-3-yl)methyl]pyrazine-2-carboxamide] | 10 | > 10 |
| O=C(NCc1ccoc1)c1ccc(CNS(=O)(=O)c2ccc(F)c(Cl)c2)cn1 [5-(3-chloro-4-fluorobenzenesulfon-amidomethyl)-N-(furan-3-ylmethyl)pyridine-2-carboxamide] | 10 | > 10 |
| O=C(NCc1cocn1)c1ccc(CNS(=O)(=O)c2ccc(F)c(Cl)c2)nc1 [6-(3-chloro-4-fluorobenzenesulfon-amidomethyl)-N-(1,3-oxazol-4-ylmethyl)pyridine-3-carboxamide] | 10 | > 10 |
| Cc1ncc(CNC(=O)c2ccc(CNS(=O)(=O)c3ccc(Cl)nc3Cl)cn2)s1 [5-(2,6-dichloropyridine-3-sulfonamidomethyl)-N-[(2-methyl-1,3-thiazol-5-yl)methyl]pyridine-2-carboxamide] | 10 | > 10 |

Further lines, results first:

| IC50 [1] [µM] | IC50 (read-out: Binned Activity) [µM] | SMILES |
| --- | --- | --- |
| 10 | > 10 | Cc1ncc(CNC(=O)c2ccc(CNS(=O)(=O)c3ccc(Cl)c4nonc34)cn2)s1 [5-(7-chloro-2,1,3-benzoxadiazole-4-sulfonamidomethyl)-N-[(2-methyl-1,3-thiazol-5-yl)methyl]pyridine-2-carboxamide] |
| – | 1 to 10 | Cn1cncc1CNC(=O)c1cnc(CNS(=O)(=O)c2ccc(F)c(Cl)c2)cn1 [5-(3-chloro-4-fluorobenzenesulfon-amidomethyl)-N-[(1-methyl-1H-imidazol-5-yl)methyl]pyrazine-2-carboxamide] |
| – | 1 to 10 | Cc1ncc(CNC(=O)c2ccc(CNS(=O)(=O)c3cccs3)cn2)s1 [N-[(2-methyl-1,3-thiazol-5-yl)methyl]-5-(thiophene-2-sulfonamidomethyl) pyridine-2-carboxamide] |
| – | 1 to 10 | COc1cccc(CNC(=O)c2ccc(CNS(=O)(=O)c3ccc(F)c(Cl)c3)cn2)c1 [5-(3-chloro-4-fluorobenzenesulfon-midomethyl)-N-[(3-methoxyphenyl)methyl] pyridine-2-carboxamide] |
| – | 1 to 10 | COc1cc(CNC(=O)c2ccc(CNS(=O)(=O)c3ccc(F)c(Cl)c3)cn2)ccn1 [5-(3-chloro-4-fluorobenzenesulfon-amidomethyl)-N-[(2-methoxypyridin-4-yl)methyl]pyridine-2-carboxamide] |
| – | 1 to 10 | Cn1cccc1CNC(=O)c1ccc(CNS(=O)(=O)c2ccc(F)c(Cl)c2)cn1 [5-(3-chloro-4-fluorobenzenesulfon-amidomethyl)-N-[(1-methyl-1H-pyrrol-2-yl)methyl]pyridine-2-carboxamide] |
| – | 1 to 10 | Cn1cccc1CNC(=O)c1cnc(CNS(=O)(=O)c2ccc(F)c(Cl)c2)cn1 [5-(3-chloro-4-fluorobenzenesulfon-amidomethyl)-N-[(1-methyl-1H-pyrrol-2-yl)methyl]pyrazine-2-carboxamide] |
| – | 0.1 to 1 | Cc1cnc(CNC(=O)c2ccc(CNS(=O)(=O)c3ccc(F)c(Cl)c3)nc2)cn1 [6-(3-chloro-4-fluorobenzenesulfon-amidomethyl)-N-[(5-methylpyrazin-2-yl)methyl]pyridine-3-carboxamide] |
